Reference: paper PMC4339887, “Selective Sirt2 inhibition by ligand-induced rearrangement of the active site” (Nature Communications, 2015)
“Also recorded” adds a separate entry of the source. Each block holds one compound with its values, some of them ahead of it.

How the values were obtained:
human Sirt1 = target: T1, human Sirt1 (Homo sapiens, UniProt Q96EB6); experiment: fluorescence-based in vitro sirtuin assay, substrate ZMAL; conditions: at 50 μM
T1 sequence (Q96EB6 133-747): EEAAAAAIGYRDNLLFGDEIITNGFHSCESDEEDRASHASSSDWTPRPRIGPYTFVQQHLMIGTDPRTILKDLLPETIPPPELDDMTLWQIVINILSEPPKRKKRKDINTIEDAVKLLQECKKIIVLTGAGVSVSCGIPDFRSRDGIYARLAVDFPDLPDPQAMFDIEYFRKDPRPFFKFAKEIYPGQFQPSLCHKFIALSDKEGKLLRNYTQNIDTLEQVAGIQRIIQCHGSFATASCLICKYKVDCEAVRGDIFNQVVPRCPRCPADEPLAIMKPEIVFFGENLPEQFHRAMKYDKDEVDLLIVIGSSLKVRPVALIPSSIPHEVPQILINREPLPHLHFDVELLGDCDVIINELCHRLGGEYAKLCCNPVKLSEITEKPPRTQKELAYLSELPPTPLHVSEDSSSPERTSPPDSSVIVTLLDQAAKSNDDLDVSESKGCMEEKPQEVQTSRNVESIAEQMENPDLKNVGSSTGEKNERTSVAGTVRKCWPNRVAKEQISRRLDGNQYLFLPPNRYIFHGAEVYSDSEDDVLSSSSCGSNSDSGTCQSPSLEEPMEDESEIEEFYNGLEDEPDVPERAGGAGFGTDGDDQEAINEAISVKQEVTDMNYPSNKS

[1] = tested on: acetylation of the microtubule network in HeLa cells; experiment: immunofluorescence microscopy of acetylated microtubule network; format: cell-based; conditions: 4 h
From the text: Cells were then stained with an anti-acetyl-α-tubulin antibody (Sigma-Aldrich, T6793) and then probed with a secondary Alexa 546 conjugated anti-mouse-antibody (Invitrogen). Nuclei were counterstained with DAPI (4',6-diamidino-2-phenylindole). Coverslips were mounted with FluoroMount (Sigma-Aldrich) and sealed with DPX Mountant (Sigma-Aldrich). Images of the mounted samples were acquired on a Leica DM500 microscope equipped with a Leica DFC 395 FX camera and HBO 100 W lamp[40]. The microscope was run with the Leica Application Suite 4.4.0 software. Chroma UV filter set (No. C40888) and Leica N2.1 filter set (No. 513832) were used for DAPI and Alexa 546 signal acquisition, respectively, with a HCX FL Fluotar 40x/0.75 (dry) objective. Further details about the equipment and the settings that were used to acquire the images are found in the Supplementary Methods section. Unprocessed images are found in Supplementary Fig. 9. […]
Immunocytochemistry equipment and settings. The signal of Alexa 546 and DAPI of the same region were acquired with constant illumination parameters as grayscale 8-bit 600 dpi tiff files (1600u 1200 pixels). Alexa 546 was acquired after 639.1 ms with a gamma factor of 0.65 without multiplying. The gain was set to 1. DAPI-stained images were acquired after about 20 ms with the same parameters as the one for Alexa 546 image acquisition. The temperature in the microscope room was kept at RT. Representative regions of each samples were processed with Adobe Photoshop CS2 to generate images in RGB mode by copying the appropriate original greyscale images to the blue (nuclei, DAPI) and the red (acetylated D-tubulin signal, Alexa 546) channel, respectively. As adjustment, a minimal background subtraction was applied on all images during processing in the same manner. The resolution was changed from 600 dpi (source images) to 450 dpi without resampling (Fig. 7 of the main article). LUT (CLUT) of grayscale images of the acetylated D-tubulin signal and of the DAPI signal are shown in Supplementary Fig. 8. […]

Sirt1 = tested on: Sirt1; set-up: method as in earlier work; conditions: selectivity profile, Sirt1 entry; ref 2-9 (supplementary references); cited from earlier work
Sirt3 = tested on: Sirt3; set-up: method as in earlier work; conditions: selectivity profile, Sirt3 entry; † inhibition substrate-dependent; ref 2-9 (supplementary references); cited from earlier work
Sirt2 = target: Sirt2; set-up: method as in earlier work; conditions: ref 2-9 (supplementary references), cited from earlier work
[2] = tested on: mitochondrial lysine-acetylation in HEK293 cells; experiment: mitochondrial protein acetylation, western blot of mitochondrial extracts; format: cell-based; conditions: 16 h
Description: page 27: Cell cultiva tion. HEK-293 cells (ATCC accession no. CRL-1573) were grown in Dulbecco's modified Eagle's medium (DMEM, PAA) containing 10% (vol/vol) fetal calf serum (FCS, PAA), 1% (vol/vol) penicillin (PAA), 1% (vol/vol) streptomycin (PAA), 1% (vol/vol), L- glutamine (PAA) at 37 °C in a 5% (vol/vol) CO2 atmosphere. Mitochondrial extra ction. HEK-293 cells (ATCC accession no. CRL-1573) were treated with nicotinamide or […]2 at the indicated concentrations for 16 h. Cells were washed in PBS and lysed in 5 packed cell volumes of lysis buffer (20 mM HEPES/KOH, 250 mM sucrose; 10 mM KCl, 1.5 mM MgCl2, 1 mM EDTA, 1 mM EGTA, 1 mM DTT; 0.1 mM PMSF, 1uComplete Protease Inhibitor Cocktail (Roche), pH 7.5). Cells were then homogenized in a Dounce homogenizer and 10% (vol/vol) of sample was removed for use as whole cell extract (WCE). To the remaining lysate, unbroken cells and nuclei were removed by centrifugation (10 min, 800g). The supernatant was transferred and centrifuged (10 min, 7,000g) to pellet mitochondria. Mitochondria were washed twice in lysis buffer, repeating centrifugation after each wash, followed by resuspending washed mitochondria in lysis buffer. […] Lysates were cleared by centrifugation, protein concentrations were quantitated and normalized with 1u Laemmli Buffer. […]

[3] = tested on: p53-Lys382-acetylation in U2OS cells; experiment: p53 acetylation after ultraviolet exposure, western blot; format: cell-based; conditions: 1 h pretreatment, 20 J cm^-2 UV, further 6 h
Description: U2OS cells (ATCC accession no. HTB-96) were seeded and cultured until they reached 90% confluency. […] Cells were incubated for an additional 6 h in the presence of the inhibitor and then lysed in IPLS (50 mM Tris/HCl, 150 mM NaCl; 0.5 mM EDTA; 0.5% (v/v) NP-40; 1 × Complete Protease Inhibitors (Roche), pH 8.0) and resuspended in 1 × Laemmli Buffer. Samples were then separated on SDS–PAGE, transferred to a nitrocellulose membrane (Bio-Rad), blocked with non-fat dry milk (Roth, 5% (w/v), TBS, 0.1% (v/v) Tween 20) and probed with anti-acetyl-p53 K382 (Cell Signaling, #2522), anti-p53 DO.1 (Santa Cruz Biotechnology, sc-126) and anti-vinculin (Cell Signaling, #4650) as a loading control. Uncropped blots are shown in the Supplementary Fig. 10.

human Sirt2 = target: T2, human Sirt2 (Homo sapiens, UniProt Q8IXJ6); experiment: fluorescence-based in vitro sirtuin assay, substrate ZMAL
T2 sequence (Q8IXJ6 25-389): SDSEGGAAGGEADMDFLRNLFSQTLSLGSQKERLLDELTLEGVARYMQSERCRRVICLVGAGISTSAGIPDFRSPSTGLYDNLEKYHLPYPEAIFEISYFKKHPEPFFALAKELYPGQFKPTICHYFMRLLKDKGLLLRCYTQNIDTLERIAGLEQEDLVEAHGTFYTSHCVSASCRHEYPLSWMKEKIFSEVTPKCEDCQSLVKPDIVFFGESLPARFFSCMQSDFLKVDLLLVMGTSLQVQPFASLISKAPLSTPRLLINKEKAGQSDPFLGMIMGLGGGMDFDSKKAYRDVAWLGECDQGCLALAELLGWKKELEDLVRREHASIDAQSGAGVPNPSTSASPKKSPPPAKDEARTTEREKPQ

BubR1 in HeLa cells = experiment: abundance of BubR1, western blot; format: cell-based; conditions: various concentrations, 16 h
Description: Cells were washed with PBS, lysed in IPLS (50 mM Tris/HCl, 150 mM NaCl, 0.5 mM EDTA, 0.5% (v/v) NP-40, pH 7.5, supplemented with Complete protease inhibitors (Roche)). Samples were pelleted and resuspended in 1 × SDS–PAGE sample buffer and heated (95 °C, 5 min). Cell samples were separated using SDS–PAGE (10% (w/v) polyacrylamide), transferred to a nitrocellulose membrane (Bio-Rad), blocked with non-fat dry milk (Roth, 5% (w/v), TBS, 0.1% (v/v) Tween 20) and probed with the anti-BubR1 (1:5,000, BD Biosciences, 612502) and anti-tubulin (1:5,000, Sigma-Aldrich, T5168) as a loading control. Uncropped blots are shown in the Supplementary Fig. 8.

[4] = tested on: α-tubulin acetylation in HeLa cells; experiment: tubulin acetylation, western blot; format: cell-based; conditions: various concentrations, 5 h
From the text: Cell samples were then separated using SDS–PAGE (12.5% (w/v) polyacrylamide), transferred to an activated nitrocellulose membrane (Bio-Rad), blocked with non-fat dry milk (Roth, 5% (w/v), TBS, 0.1% (v/v) Tween 20) and probed with an anti-acetyl-α-tubulin antibody (1:1,000, Sigma-Aldrich, T6793) and an anti-GAPDH antibody (1:2,000–1:5,000, Sigma-Aldrich, G9545) as a loading control (Fusion SL, peqlab). An uncropped blot is shown in Supplementary Fig. 8.

- activity of Sirt1 (human Sirt1): not affected
Structure (SMILES): N#C/C(=C\c1ccc(-c2cc(Cl)ccc2Cl)o1)C(=O)Nc1cccc2ncccc12 [AGK2, reference compound]
- acetylation level of the microtubule network ([1]; 20 μM): hyperacetylation of the microtubule network

Structure (SMILES): NC(=O)[C@H]1CCCCc2c1[nH]c1ccc(Cl)cc21 [CHIC-35]
- Selectivity Sirt1/Sirt2/Sirt3 (fold): Sirt1 (Sirt1): 1 fold
- Selectivity Sirt1/Sirt2/Sirt3 (fold): Sirt3 (Sirt3): > 833 fold
- IC50/kd for Sirt2 (Sirt2; published values, Supplementary Table 1): 2.4 µM
- Selectivity Sirt1/Sirt2/Sirt3 (fold): Sirt2 (Sirt2; selectivity profile, Sirt2 entry): 23 fold

Structure (SMILES): NC(=O)c1cccnc1 [NCA, nicotinamide, reference compound]
- acetylation of mitochondrial proteins [2]: increase
- acetylation of p53 (Lys382) after ultraviolet exposure [3]: further increased
- acetylation of p53 (Lys382) after ultraviolet exposure ([3]; listed as nicotinamide): increase

Structure (SMILES): O=C(Nc1ccccc1-c1cn2c(CN3CCNCC3)csc2n1)c1cnc2ccccc2n1 [SRT1720]
- Selectivity Sirt1/Sirt2/Sirt3 (fold): Sirt1 (Sirt1): activation
- Selectivity Sirt1/Sirt2/Sirt3 (fold): Sirt3 (Sirt3): 1 fold

- IC50 (human Sirt2): 2.3 µM
Structure (SMILES): O=C(CSc1ncccn1)Nc1ncc(Cc2cccc3ccccc23)s1 [SirReal3]

- IC50 (human Sirt2): 16.8 µM
Structure (SMILES): O=C(CSc1ncccn1)Nc1ncc(Cc2ccccc2)s1 [SirReal4]

- IC50 (human Sirt2): > 50 µM
Structure (SMILES): Cc1cc(C)cc(SCC(=O)Nc2ncc(Cc3cccc4ccccc34)s2)c1 [SirReal5]
- abundance of BubR1 (BubR1 in HeLa cells): did not influence
- acetylation of p53 (Lys382) after ultraviolet exposure [3]: did not observe an increase

- IC50 (human Sirt2): > 100 µM
Structure (SMILES): Cc1cc(C)nc(SCC(=O)N(C)c2ncc(Cc3cccc4ccccc34)s2)n1 [SirReal6]
- level of α-tubulin acetylation [4]: not
- abundance of BubR1 (BubR1 in HeLa cells): did not influence
- acetylation level of the microtubule network ([1]; 50 μM): does not alter; also recorded: no substantial change
- acetylation of p53 (Lys382) after ultraviolet exposure [3]: did not observe an increase
